Laboratory results from US20200069775A1, “BRAIN OSTEOCALCIN RECEPTOR AND COGNITIVE DISORDERS” (The Trustees of Columbia University in the City of New York, priority 2017, published 2020).

Legend:
3 month-old WT mice = assay: Alendronate treatment with or without osteocalcin, MWMT and NOR; type: in vivo, mouse
Procedure: For plasma injection experiments, 100 μl of plasma were injected 8 times during 24 days, via tail vein. Each group described is represented individually in each panel. For osteocalcin delivery in WT mice, pumps (Alzet micro-osmotic pump, Model 1002) delivering osteocalcin (30 ng/hr for 12 month-old and 90 ng/hr for 16 month-old mice), or vehicle, were surgically installed subcutaneously in the back of mice. […] Control mice receiving vehicle or mice receiving alendronate were implanted with osmotic pumps delivering vehicle only.
Morris water maze test: Animals are transported to the testing room in their home cages, and left undisturbed for at least 30 minutes prior to the first trial. The maze is comprised of a large swimming pool (150cm diameter) filled with water (23° C.) made opaque with non-toxic white paint. The pool is located in a brightly lit room filled with visual cues, including geometric figures on the walls of the maze demarking the four fixed starting positions of the trials, at (12:00, 3:00, 6:00 and 9:00). A 15 cm round platform is hidden 1 cm beneath the surface of the water at a fixed position. Each daily trial block consisted of four swimming trials, with each mouse starting from the same randomly chosen starting position. The starting position is varied between days. On day 1, mice that fail to find the platform within 2 min are guided to the platform. They must remain on the platform for 15 s before they are returned to their home cage. Mice are not guided to the platform after day 1, and the time it takes them to reach the platform over repeated trials ([…] for the next 10 days) is recorded as a measure of spatial learning.
Novel object recognition test (NOR): The NOR paradigm assesses the rodent's ability to recognize a novel object in the environment. The NOR task will be conducted, as previously described7, in an opaque plastic box using 2 different objects: (1) a clear plastic funnel (diameter 8.5 cm, maximal height 8.5 cm) and (2) a black plastic box (9.5 cm^3). These objects elicit equal levels of exploration as determined in pilot experiments (Denny, C. A., et al., 2012, Hippocampus 22:1188-1201; Oury, F., et al., 2013, Cell 155:228-241). The NOR paradigm consists of 3 exposures over the course of 3 days. On day 1, the habituation phase, mice are given 5 minutes to explore the empty arena, without any objects. On day 2, the familiarization phase, mice are given 10 minutes to explore 2 identical objects, placed at opposite ends of the box. On day 3, the test phase, mice are given 15 minutes to explore 2 objects, one novel object and a copy of the object from the familiarization phase. The object that serves as the novel object (either the funnel or the box) as well as the left/right starting position of the objects are counterbalanced within each group. Mice are placed in the center of the arena at the start of each exposure. […] Preference for the novel object is assessed based on the fraction of time that a mouse spends exploring the novel object compared to the familiar object. Exploration is scored from video recordings of each exposure and recorded using the Stopwatch program. […]
Streptavidin were added for 30 minutes at room temperature followed by PBS washes. […] For hormonal measurement; circulating levels of the carboxylated, undercarboxylated or uncarboxylated forms of osteocalcin were measured by ELISA. CTX content in serum (ng/ml) were measured with specific ELISAs (RatLaps™ (CTX-I) EIA (Immunodiagnosticsystems).

[1] = system: brainstem neurons (dorsal raphe 5-HT neurons, locus coeruleus, GABAergic interneurons); assay: Whole cell current clamp recording in brainstem slices; type: cell-based, mouse; conditions: 3 μM, current clamp in slices
Procedure: Brain slice preparations and electrophysiological recordings were performed according to methods known in the art. Briefly, WT mice were anesthetized with ether and then decapitated. The brains were rapidly removed and immersed in an oxygenated bath solution at 40° C. containing (in mM): sucrose 220, KCl 2.5, CaCl2 1, MgC12 6, NaH2PO4 1.25, NaHCO3 26, and glucose 10 pH 7.3 with NaOH. Coronal slices (350 μm thick) containing dorsal raphe (DR) were cut on a vibratome and maintained in a holding chamber with artificial cerebrospinal fluid (ACSF) (bubbled with 5% CO2 and 95% O2) containing (in mM): NaCl 124, KCl 3, CaCl2 2, MgCl2 2, NaH2PO4 1.23, NaHCO3 26, glucose 10, pH 7.4 with NaOH, and were transferred to a recording chamber constantly perfused with bath solution (330 C) at 2 ml/min after at least a 1 hr recovery. Whole-cell current clamp was performed to observe action potentials in DR serotoninergic (5-HT) neurons with a Multiclamp 700A amplifier (Axon instrument, CA). Patch pipettes with a tip resistance of 4-6 MΩ were made of borosilicate glass (World Precision Instruments) with a Sutter pipette puller (P-97) and filled with a pipette solution containing (in mM): K-gluconate (or Cs-gluconate) 135, MgCl2 2, HEPES 10, EGTA 1.1, Mg-ATP 2, Na2-phosphocreatine 10, and Na2-GTP 0.3, pH 7.3 with KOH. After a giga-Ohm (GΩ) seal and whole-cell access were achieved, the series resistance (between 20 and 40 MΩ) was partially compensated by the amplifier. […] All data were sampled at 3-10 kHz and filtered at 1-3 kHz with an Apple Macintosh computer using Axograph 4.9 (Axon Instruments). Electrophysiological data were analyzed with Axograph 4.9 and plotted with Igor Pro software (WaveMetrics, Lake Oswego, Oreg.).

[2] = Blood brain barrier crossing: subcutaneous pump infusion, content in blood, bone and brain parts by ELISA; type: in vivo, mouse; conditions: ob/ob mice, subcutaneous infusion 50 ng/hour, seven days; positive control
Procedure: Osteocalcin−/−, Gprc6a−/−, Osteocalcin-mCherry, and Osteocalcin foxed mice have been previously described (Ducy et al., 1996, Nature 382:448-452; Oury et al., 2011, Cell 144:796-809). Mouse genotypes were determined by PCR. For all experiments, controls were littermate female WT, Cre-expressing, or flox/flox. All mice were maintained on a pure 129-Sv genetic background except for the inducible deletion Osteocalcin model (mix background: 25% C57/BL6 and 75% 129sv). For inducible gene deletion mice, tamoxifen was prepared in corn oil and injected intraperitoneally (IP) (1 mg/20g of body weight) over one week. For osteocalcin delivery to pregnant mice, IP injections (240 ng/day) were performed as soon as a plug was present daily until delivery (E0.5-E18.5). For osteocalcin or leptin infusion in adult Osteocalcin−/− or ob/ob mice, pumps (Alzet micro-osmotic pump, Model 1002) delivering osteocalcin (300 ng/hr), leptin (50 ng/hr), or vehicle were surgically installed subcutaneously in the backs of 3-month old mice. For the postnatal rescue of cognitive functions in Osteocalcin−/− mice, osteocalcin (10 ng/hour) or vehicle were delivered intrasubventricularly (icv) as previously described (Ducy et al., 2000, Cell 100:197-207). Leptin and osteocalcin content in sera and tissues were determined by ELISA.
To understand how this behavioral phenotype develops, whether osteocalcin crosses the blood brain barrier (BBB) was tested by installing pumps that subcutaneously delivered vehicle or uncarboxylated osteocalcin (50 ng/hour) in three-month-old Osteocalcin−/− mice. The positive control for this experiment was subcutaneous infusion of leptin (50 ng/hour) in 3 month-old ob/ob mice, since leptin is known to cross the BBB (Banks et al., 1996, Peptides 17:305-311). Seven days later, osteocalcin and leptin content were measured in blood, bone, and in various parts of the brain in Osteocalcin−/− and ob/ob mice, respectively.

[3] = system: Tph2, Th, Gad1 expression in brainstem and midbrain explants; assay: Gene expression (qPCR) in brainstem and midbrain explants; type: cell-based, mouse; conditions: leptin positive control; WT or Gprc6a−/− brainstem explants
Procedure: For gene expression studies, RNA was isolated from primary neurons or tissue using TRIZOL® (Invitrogen). cDNA synthesis was performed following a standard protocol from Invitrogen and qPCR analyses were done using specific quantitative PCR primers from SABiosciences (http://www.sabiosciences.com/RT2PCR.php).
Brains were dissected and incubated for 30 minutes in ice cold oxygenated artificial cerebrospinal fluid (ACSF). Brains were then sliced at 500 μm at the midbrain, −1.55 to −2.35 mm from the bregma, and at the level of the brainstem, from −4.04 to −4.48 mm and from −4.60 to −5.20 mm from the bregma, to include the median and dorsal raphe, respectively. These slices were incubated in ACSF for 1 h, constantly oxygenated (95% O2 and 5% CO2) […], after which they were treated with either osteocalcin (10 ng/ml) or PBS for four hours. Expression of Tph2, TH, GAD 1, GAD2, and Ddc was measured by qPCR.
To determine if osteocalcin acts directly on neurons to modulate neurotransmitter synthesis, several types of assays were performed. First, brainstem and midbrain explants from WT and Gprc6a^−/− mice were generated. Brains were sliced (500 μm) at the level of the median and dorsal raphe of the brainstem (from −4.04 to −4.48 mm and from −4.60 to −5.20 mm, respectively), so that they would be enriched in serotonin-producing neurons, as well as at the level of substantia nigrae and ventral tegmental areas (VTA) of the midbrain (from −1.55 to −2.35 mm and from −2.55 to −3.25 mm, respectively). Enrichment in serotoninergic and catecholaminergic neurons in these explants was verified by their high Tph2 and Th expression. While leptin, used here as a positive control, reduced, as it should, Tph2 expression in WT or Gprc6a^−/− brainstem explants, osteocalcin ([…]) increased expression of this gene 2.5 fold in both WT and Gprc6a^−/− explants. (FIG. 3D). […] Third, to further confirm that osteocalcin signals in neurons of the hindbrain, calcium flux in MPHN treated with undercarboxylated or carboxylated osteocalcin (FIG. 3F) was measured.

Molecule: NCCCC(O)(P(=O)(O)O)P(=O)(O)O [alendronate]
- bone resorption (3 month-old WT mice; 3 week-long treatment): inhibited bone resorption
- circulating levels of bioactive osteocalcin (3 month-old WT mice; 3 week-long treatment): decreased the circulating levels of bioactive osteocalcin
- learning in the MWMT (3 month-old WT mice; alendronate-treated mice): delay in learning in the MWMT
- memory in NOR (3 month-old WT mice; alendronate-treated mice): memory deficit in NOR

Molecule: CN1CC(=O)N=C1N.NCCc1c[nH]c2ccc(O)cc12.O=S(=O)(O)O [serotonin creatinine sulfate complex, reference compound]
- action potentials in dorsal raphe 5-HT neurons [1]: inhibited action potentials

B1: leptin (protein, UniProt P41160 22-167, looked up)
Leptin: VPIQKVQDDTKTLIKTIVTRINDISHTQSVSAKQRVTGLDFIPGLHPILSLSKMDQTLAVYQQVLTSLPSQNVLQIANDLENLRDLLHLLAFSKSCSLPQTSGLQKPESLDGVLEASLYSTEVVALSRLQGSLQDILQQLDVSPEC
notes: adipocyte-derived hormone, positive control known to cross the BBB
- leptin content in parts of the brain [2]: could be detected in the brainstem and hypothalamus
- Tph2 expression [3]: reduced
